Test results published in ChEMBL document CHEMBL1144924, “Calculation of the binding affinity of beta-secretase inhibitors using the linear interaction energy method” (J Med Chem, 2003).

Target: Beta-secretase 1 (Homo sapiens, UniProt P56817)
Assay: Binding affinity for human brain memapsin 2 beta-Secretase (BACE)

Chain of Beta-secretase 1 (P56817 whole entry): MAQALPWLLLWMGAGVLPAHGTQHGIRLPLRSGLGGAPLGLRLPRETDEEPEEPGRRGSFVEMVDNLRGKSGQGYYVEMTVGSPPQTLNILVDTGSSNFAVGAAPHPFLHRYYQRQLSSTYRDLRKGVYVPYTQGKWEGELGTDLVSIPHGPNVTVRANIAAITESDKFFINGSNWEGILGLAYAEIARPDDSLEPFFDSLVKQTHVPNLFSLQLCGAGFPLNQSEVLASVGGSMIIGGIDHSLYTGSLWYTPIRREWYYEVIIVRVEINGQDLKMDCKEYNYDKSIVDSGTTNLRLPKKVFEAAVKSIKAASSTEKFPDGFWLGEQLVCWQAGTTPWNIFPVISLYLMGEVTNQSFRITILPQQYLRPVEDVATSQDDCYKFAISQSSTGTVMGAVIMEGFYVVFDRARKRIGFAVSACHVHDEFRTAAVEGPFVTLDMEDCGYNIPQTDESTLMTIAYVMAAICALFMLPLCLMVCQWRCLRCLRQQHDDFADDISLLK

| Structure (SMILES) | Ki |
| --- | --- |
| CSCCC(NC(=O)[C@@H](NC(=O)OC(C)(C)C)C(C)C)C(=O)N[C@@H](CC(C)C)C(O)CC(C)C(=O)NC(C(=O)NCc1ccccc1)C(C)C (some centres undefined) | 2.5 nM |
| CC(C)C[C@H](NC(=O)C(CS(C)(=O)=O)NC(=O)[C@@H](NC(=O)OC(C)(C)C)C(C)C)C(O)CC(C)C(=O)NC(C(=O)NCc1ccccc1)C(C)C (some centres undefined) | 9.4 nM |
| CC(C)C[C@H](NC(=O)[C@H](CS(C)(=O)=O)NC(=O)OC(C)(C)C)C(O)CC(C)C(=O)NC(C(=O)NCc1ccccc1)C(C)C (some centres undefined) | 1130 nM |
| CC(C)C[C@H](NC(=O)C(CC(N)=O)NC(=O)[C@@H](NC(=O)OC(C)(C)C)C(C)C)C(O)CC(C)C(=O)NC(C(=O)NCc1ccccc1)C(C)C (some centres undefined) | 5.9 nM |
| CC(C)C[C@H](NC(=O)[C@H](CC(N)=O)NC(=O)OC(C)(C)C)C(O)CC(C)C(=O)NC(C(=O)NCc1ccccc1)C(C)C (some centres undefined) | 3130 nM |
| CC(C)C[C@H](NC(=O)[C@H](CC(N)=O)NC(=O)OC(C)(C)C)C(O)CC(C)C(=O)NC(C)C(=O)NCc1ccccc1 (some centres undefined) | 22400 nM |
| CSCC(NC(=O)[C@@H](NC(=O)OC(C)(C)C)C(C)C)C(=O)N[C@@H](CC(C)C)C(O)CC(C)C(=O)NC(C(=O)NCc1ccccc1)C(C)C (some centres undefined) | 50.1 nM |
| CC(C)C[C@H](NC(=O)C(CC(N)=O)NC(=O)[C@@H](NC(=O)OC(C)(C)C)C(C)C)C(O)CC(C)C(=O)NC(C)C(=O)NCc1ccccc1 (some centres undefined) | 61.4 nM |
| CSCCC(NC(=O)OC(C)(C)C)C(=O)N[C@@H](CC(C)C)C(O)CC(C)C(=O)NC(C(=O)NCc1ccccc1)C(C)C (some centres undefined) | 5810 nM |
